In article PMC2756481 (Biochemical and biophysical research communications, 2009):
Read-outs that look alike come from different tables or passages of the source.

Experiments:
64 kDa MMP-2 [1] = biological target: T1, 64 kDa MMP-2 (Homo sapiens, UniProt P08253); experiment: OmniMMP fluorogenic substrate kinetic assay of MMP-2 activity; format: biochemical; conditions: for IC50: 15 µM substrate; for IC50 values (range in words): substrate degradation assay, 64 kDa MMP-2
T1 sequence (P08253 110-660): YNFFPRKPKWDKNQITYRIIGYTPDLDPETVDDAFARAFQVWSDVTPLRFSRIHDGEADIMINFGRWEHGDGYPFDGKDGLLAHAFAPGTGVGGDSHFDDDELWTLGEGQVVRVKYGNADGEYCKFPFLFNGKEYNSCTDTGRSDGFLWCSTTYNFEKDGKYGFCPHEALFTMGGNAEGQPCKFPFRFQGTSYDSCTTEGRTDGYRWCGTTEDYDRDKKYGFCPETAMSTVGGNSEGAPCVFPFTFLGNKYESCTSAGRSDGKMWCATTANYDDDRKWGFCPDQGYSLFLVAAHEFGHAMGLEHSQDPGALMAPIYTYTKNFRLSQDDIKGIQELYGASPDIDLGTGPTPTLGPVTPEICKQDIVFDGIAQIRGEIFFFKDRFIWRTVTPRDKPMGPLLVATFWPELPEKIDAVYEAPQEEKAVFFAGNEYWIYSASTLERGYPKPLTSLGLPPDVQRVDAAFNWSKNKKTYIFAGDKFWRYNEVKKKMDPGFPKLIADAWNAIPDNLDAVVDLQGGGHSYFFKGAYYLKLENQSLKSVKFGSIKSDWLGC

PARP [2] = conditions: in vitro; cited from earlier work
PARP [3] = conditions: in animal models; cited from earlier work
64 kDa MMP-2 [4] = biological target: T1, 64 kDa MMP-2; experiment: Gelatinolytic activity of MMP-2 by gelatin zymography; format: biochemical
[5] = IC50 ± SD, 1 nM ZnSO4, 50 mM Tris pH 7.6, 37 °C
[6] = IC50 ± SD, 10 µM ZnSO4, 50 mM Tris pH 7.6, 10 mM CaCl2, 0.05% Brij-35, 37 °C
[7] = read-out: IC50 ± SD, 10 µM ZnSO4, 50 mM Tris pH 7.6, 10 mM CaCl2, 0.05% Brij-35, 37 °C

Row | SMILES | IC50 (64 kDa MMP-2 [1]; [5]) | IC50 (64 kDa MMP-2 [1]; [6]) | IC50 values (range in words) (64 kDa MMP-2 [1]) | also measured
1 | NC(=O)c1cccc(N)c1 [3-AB, 3-Aminobenzamide] | 1000 ± 200 µM | 1760 ± 220 µM | millimolar range | potency for PARP inhibition (PARP [2]): micromolar range; potency for PARP inhibition (PARP [3]): millimolar range
2 | Nc1cccc2c(=O)[nH]ccc12 [5-AIQ, 5-aminoisoquinolinone] |  |  | high micromolar range | IC50 (64 kDa MMP-2 [1]; [7]): 102 ± 34 µM
3 | C[C@H]1c2cccc(O)c2C(=O)C2=C(O)[C@]3(O)C(=O)C(C(N)=O)=C(O)[C@@H](N(C)C)[C@@H]3[C@@H](O)[C@@H]21 [Doxycycline, doxycycline] | 93 ± 12 µM | 86 ± 13 µM |  | 
4 | CN(C)c1ccc(O)c2c1C[C@H]1C[C@H]3[C@H](N(C)C)C(O)=C(C(N)=O)C(=O)[C@@]3(O)C(O)=C1C2=O [Minocycline, minocycline] |  | 57 ± 6 µM |  | 
5 | c1cnc2c(c1)ccc1cccnc12 [o-Phenanthroline, o-phenanthroline] | 116 ± 9 µM |  |  | 

The next lines start with results.

Row | IC50 (64 kDa MMP-2 [1]; [5]) | IC50 (64 kDa MMP-2 [1]; [6]) | IC50 values (range in words) (64 kDa MMP-2 [1]) | SMILES | also measured
6 |  |  | millimolar range | Nc1ncnc2c1ncn2[C@@H]1O[C@H](C(=O)N2CCN(CC(=O)Nc3cccc4c3CNC4=O)CC2)[C@@H](O)[C@H]1O [EB-47, 1-piperazineacetamide-4-[1-(6-amino-9H-purin-9-yl)-1-deoxy-D-ribofuranuron]-N-(2,3-dihydro-1H-isoindol-4-yl)-1-one] | IC50 (64 kDa MMP-2 [1]; [7]): > 3000 µM
7 | 27 ± 10 µM | 56 ± 14 µM | high micromolar range | CN(C)CC(=O)Nc1ccc2[nH]c(=O)c3ccccc3c2c1 [PJ-34, 2-(dimethylamino)-N-(5,6-dihydro-6-oxophenanthridin-2-yl)acetamide] | IC50 (64 kDa MMP-2 [4]): 9200 µM
